Reference: the CheMixHub viscosity set
Where “and” joins values, the source holds several entries; their conditions need not be identical. Equal entries are not always repeated.

Assay: xn = mol fraction of the nth substance listed

COC(C)=O + c1ccccc1
101 kPa
Conditions | viscosity [mPa·s]
293.15 K, x1 = 0.5 | 0.48
298.15 K, x1 = 0.0436 | 0.587
298.15 K, x1 = 0.1504 | 0.55
298.15 K, x1 = 0.2504 | 0.52
298.15 K, x1 = 0.3483 | 0.494
298.15 K, x1 = 0.441 | 0.472
298.15 K, x1 = 0.4878 | 0.462
298.15 K, x1 = 0.5512 | 0.449
298.15 K, x1 = 0.6492 | 0.431
298.15 K, x1 = 0.7483 | 0.415
298.15 K, x1 = 0.8514 | 0.401
298.15 K, x1 = 0.9486 | 0.389
298.15 K, x2 = 0.1115 | 0.363
298.15 K, x2 = 0.1916 | 0.374
298.15 K, x2 = 0.293 | 0.388
298.15 K, x2 = 0.3964 | 0.407
298.15 K, x2 = 0.4965 | 0.429
298.15 K, x2 = 0.6017 | 0.454
298.15 K, x2 = 0.6991 | 0.482
298.15 K, x2 = 0.7955 | 0.512
298.15 K, x2 = 0.8946 | 0.548
303.15 K, x1 = 0.5 | 0.428
308.15 K, x1 = 0.0436 | 0.513
308.15 K, x1 = 0.1504 | 0.485
308.15 K, x1 = 0.2504 | 0.461
308.15 K, x1 = 0.3483 | 0.441
308.15 K, x1 = 0.441 | 0.423
308.15 K, x1 = 0.4878 | 0.415
308.15 K, x1 = 0.5 | 0.406
308.15 K, x1 = 0.5512 | 0.405
308.15 K, x1 = 0.6492 | 0.39
308.15 K, x1 = 0.7483 | 0.377
308.15 K, x1 = 0.8514 | 0.365
308.15 K, x1 = 0.9486 | 0.356
313.15 K, x2 = 0.1115 | 0.321
313.15 K, x2 = 0.1916 | 0.33
313.15 K, x2 = 0.293 | 0.339
313.15 K, x2 = 0.3964 | 0.354
313.15 K, x2 = 0.4965 | 0.37
313.15 K, x2 = 0.6017 | 0.388
313.15 K, x2 = 0.6991 | 0.407
313.15 K, x2 = 0.7955 | 0.429
313.15 K, x2 = 0.8946 | 0.455

CCC(C)=O + CCCCO
viscosity [mPa·s]
Conditions | 298.15 K | 308.15 K | 318.15 K
100 kPa, x1 = 0.0997 | – | 1.465 | –
100 kPa, x1 = 0.1999 | – | 1.115 | –
101.3 kPa, x2 = 0.0987 | 0.428 | 0.385 | 0.349
101.3 kPa, x2 = 0.1988 | 0.476 | 0.425 | 0.382
101.3 kPa, x2 = 0.3004 | 0.538 | 0.476 | 0.425
101.3 kPa, x2 = 0.3991 | 0.616 | 0.54 | 0.478
101.3 kPa, x2 = 0.4973 | 0.722 | 0.626 | 0.547
101.3 kPa, x2 = 0.5972 | 0.861 | 0.737 | 0.636
101.3 kPa, x2 = 0.6979 | 1.06 | 0.891 | –
101.3 kPa, x2 = 0.7995 | 1.361 | 1.121 | 0.931
101.3 kPa, x2 = 0.9028 | – | 1.458 | 1.188

O=C(O)c1ccccc1 + CC(C)O
viscosity [mPa·s], 101 kPa
Conditions | x1 = 0.000601 | x1 = 0.00181 | x1 = 0.00276 | x1 = 0.0042 | x1 = 0.00508 | x1 = 0.005992
298.15 K | 2.579 | 2.574 | 2.569 | 2.562 | 2.559 | 2.556
308.15 K | 1.932 | 1.927 | 1.922 | 1.916 | 1.914 | 1.912
318.15 K | 1.496 | 1.49 | 1.486 | 1.481 | 1.479 | 1.477

CCCCOCC(C)O (configuration not stated) + CCO
viscosity [mPa·s], 101.33 kPa
Conditions | 298.15 K | 308.15 K | 318.15 K
x1 = 0.05 | 1.229 | 1.013 | 0.846
x1 = 0.1 | 1.344 | 1.103 | 0.915
x1 = 0.15 | 1.462 | 1.193 | 0.982
x1 = 0.2 | 1.585 | 1.279 | 1.046
x1 = 0.25 | 1.705 | 1.363 | 1.108
x1 = 0.3 | 1.813 | 1.442 | 1.166
x1 = 0.35 | 1.918 | 1.516 | 1.22
x1 = 0.4 | 2.022 | 1.589 | 1.273
x1 = 0.45 | 2.12 | 1.656 | 1.321
x1 = 0.5 | 2.211 | 1.724 | 1.365
x1 = 0.55 | 2.305 | 1.779 | 1.409
x1 = 0.6 | 2.384 | 1.841 | 1.445
x1 = 0.65 | 2.469 | 1.891 | 1.49
x1 = 0.7 | 2.536 | 1.935 | 1.517
x1 = 0.7499 | 2.608 | 1.983 | 1.55
x1 = 0.7998 | 2.674 | 2.035 | 1.58
x1 = 0.85 | 2.737 | 2.067 | 1.609
x1 = 0.8998 | 2.788 | 2.099 | 1.633
x1 = 0.95 | 2.841 | 2.135 | 1.647

C[C@H](N)C(=O)[O-].[Na+] + O
viscosity [mPa·s], 101 kPa
Conditions | x1 = 0.004484 | x1 = 0.008927 | x1 = 0.01333 | x1 = 0.0177 | x1 = 0.02202 | x1 = 0.02631 | x1 = 0.03478 | x1 = 0.0431 | x1 = 0.05127
293.15 K | 1.118 | 1.239 | 1.371 | 1.526 | 1.683 | 1.856 | 2.272 | 2.747 | 3.244
303.15 K | 0.886 | 0.979 | 1.077 | 1.192 | 1.305 | 1.436 | 1.726 | 2.062 | 2.399
313.15 K | 0.722 | – | 0.871 | 0.96 | 1.046 | 1.144 | 1.372 | 1.605 | 1.851
323.15 K | 0.602 | 0.662 | 0.722 | 0.791 | 0.859 | 0.935 | 1.1 | 1.286 | 1.477

CCCCCCCC(=O)OCC + CCCCO
viscosity [mPa·s], 100 kPa
Conditions | x2 = 0.1124 | x2 = 0.2221 | x2 = 0.3 | x2 = 0.4 | x2 = 0.4999 | x2 = 0.5999 | x2 = 0.727 | x2 = 0.8203 | x2 = 0.9108
293.15 K | 1.508 | 1.507 | 1.521 | 1.548 | 1.587 | 1.651 | 1.795 | 2.014 | 2.351
298.15 K | 1.378 | 1.379 | 1.378 | 1.407 | 1.436 | 1.488 | 1.61 | 1.789 | 2.071
303.15 K | 1.264 | 1.261 | 1.263 | 1.295 | 1.307 | 1.36 | 1.468 | 1.611 | 1.842
308.15 K | 1.162 | 1.161 | 1.164 | 1.177 | 1.193 | 1.233 | 1.331 | 1.458 | 1.646
313.15 K | 1.069 | 1.062 | 1.06 | 1.07 | 1.09 | 1.122 | 1.194 | 1.307 | 1.467
318.15 K | 0.999 | 0.988 | 0.99 | 0.993 | 1.013 | 1.039 | 1.106 | 1.193 | 1.327
323.15 K | 0.932 | 0.927 | 0.92 | 0.925 | 0.94 | 0.958 | 1.011 | 1.091 | 1.208

COc1ccccc1N + CCC(=O)CC
viscosity [mPa·s], 100 kPa
Conditions | x1 = 0.0991 | x1 = 0.1998 | x1 = 0.2865 | x1 = 0.3698 | x1 = 0.4502 | x1 = 0.5469 | x1 = 0.6601 | x1 = 0.7965 | x1 = 0.8805
303.15 K | 0.905 | 1.383 | 1.793 | 2.178 | 2.544 | 2.98 | 3.48 | 4.069 | 4.425
308.15 K | 0.85 | 1.3 | 1.681 | 2.038 | 2.379 | 2.784 | 3.249 | 3.796 | 4.123
313.15 K | 0.795 | 1.217 | 1.569 | 1.897 | 2.213 | 2.586 | 3.016 | 3.52 | 3.819

COCCOC + CC1COC(=O)O1
viscosity
Conditions | 298.15 K | 308.15 K | 318.15 K
101 kPa, x1 = 0.2 | 1.617 mPa·s and 1.616 mPa·s | – | –
101 kPa, x1 = 0.45 | 1.009 mPa·s and 1.007 mPa·s | – | –
101 kPa, x1 = 0.7 | 0.66 mPa·s and 0.659 mPa·s | – | –
101.33 kPa, x1 = 0.0493 | 2.227 mPa·s | 1.833 mPa·s | 1.561 mPa·s
101.33 kPa, x1 = 0.0999 | 1.96 mPa·s | 1.659 mPa·s | 1.417 mPa·s
101.33 kPa, x1 = 0.1524 | 1.752 mPa·s | 1.495 mPa·s | 1.277 mPa·s
101.33 kPa, x1 = 0.1867 | 1.637 mPa·s | 1.402 mPa·s | –
101.33 kPa, x1 = 0.2298 | 1.507 mPa·s | 1.297 mPa·s | 1.113 mPa·s
101.33 kPa, x1 = 0.2769 | – | 1.183 mPa·s | –
101.33 kPa, x1 = 0.3128 | 1.289 mPa·s | – | 0.9676 mPa·s
101.33 kPa, x1 = 0.3708 | 1.162 mPa·s | 0.9973 mPa·s | 0.881 mPa·s
101.33 kPa, x1 = 0.4036 | 1.097 mPa·s | 0.9447 mPa·s | 0.8272 mPa·s
101.33 kPa, x1 = 0.4686 | 0.9699 mPa·s | – | –
101.33 kPa, x1 = 0.5193 | 0.8882 mPa·s | 0.7779 mPa·s | 0.6827 mPa·s
101.33 kPa, x1 = 0.5704 | – | 0.7178 mPa·s | 0.6389 mPa·s
101.33 kPa, x1 = 0.6382 | 0.7272 mPa·s | – | 0.5728 mPa·s
101.33 kPa, x1 = 0.6767 | 0.6885 mPa·s | 0.6105 mPa·s | 0.5449 mPa·s
101.33 kPa, x1 = 0.7589 | 0.6047 mPa·s | – | 0.4782 mPa·s
101.33 kPa, x1 = 0.8103 | 0.5589 mPa·s | 0.5052 mPa·s | 0.4571 mPa·s
101.33 kPa, x1 = 0.8432 | 0.5429 mPa·s | 0.4728 mPa·s | 0.4376 mPa·s
101.33 kPa, x1 = 0.9035 | 0.4872 mPa·s | 0.4381 mPa·s | 0.397 mPa·s
101.33 kPa, x1 = 0.9483 | 0.4564 mPa·s | 0.4073 mPa·s | 0.375 mPa·s
101.33 kPa, x2 = 0.2217 | 0.5911 mPa·s | 0.5265 mPa·s | 0.4711 mPa·s
101.33 kPa, x2 = 0.3749 | 0.7628 mPa·s | 0.6716 mPa·s | 0.5956 mPa·s
101.33 kPa, x2 = 0.5841 | 1.099 mPa·s | 0.9453 mPa·s | 0.8342 mPa·s
101.33 kPa, x2 = 0.7836 | 1.594 mPa·s | 1.356 mPa·s | 1.168 mPa·s

CNC(=O)NC + O
101 kPa
Conditions | viscosity [mPa·s]
293.15 K, x1 = 0.000596 | 1.045
293.15 K, x1 = 0.06729 | 2.325
293.15 K, x1 = 0.08722 | 2.805
298.15 K, x1 = 0.1358 | 3.535
298.15 K, x1 = 0.2199 | 5.955
303.15 K, x1 = 0.08722 | 2.055
308.15 K, x1 = 0.11 | 2.135
308.15 K, x1 = 0.1358 | 2.545
313.15 K, x1 = 0.1358 | 2.195
